Experiment [1] concerns the target T1, mS29 (mitoribosomal small subunit) (Neurospora crassa, UniProt Q7SD06).
T1 construct: gene rsm23; native mS29 within the mtSSU of intact mitoribosomes purified from mycelia mitochondria; His-tag is on Oxa1 only
T1 sequence (Q7SD06 1-469): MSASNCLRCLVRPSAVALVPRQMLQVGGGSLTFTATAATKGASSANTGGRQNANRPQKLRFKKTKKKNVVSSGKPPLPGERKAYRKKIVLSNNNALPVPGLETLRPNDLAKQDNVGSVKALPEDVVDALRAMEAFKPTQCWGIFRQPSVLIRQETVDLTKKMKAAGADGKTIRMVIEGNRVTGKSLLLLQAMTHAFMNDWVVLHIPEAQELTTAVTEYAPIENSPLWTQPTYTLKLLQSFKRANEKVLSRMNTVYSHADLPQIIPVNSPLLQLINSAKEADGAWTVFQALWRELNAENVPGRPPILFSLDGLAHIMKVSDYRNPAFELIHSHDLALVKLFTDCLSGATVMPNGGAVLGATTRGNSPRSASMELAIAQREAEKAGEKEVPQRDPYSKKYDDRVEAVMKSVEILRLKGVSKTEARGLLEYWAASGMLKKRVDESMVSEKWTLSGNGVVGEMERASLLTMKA
The experiment can be described thus: cryo-EM structure. It is filed as binding. Conditions: co-purified endogenous nucleotide in P-loop pocket; assigned as ATP rather than GDP from density and chemical environment (Leu150); local resolution 2.77 A.

Experiment [2] deals with T2, pocket formed by mL40, uL5m, and rRNA H84-ES3 (central protuberance of mtLSU) (Neurospora crassa, UniProt Q1K6P0+V5IQE0).
T2 construct: gene mrpl28; native proteins within the mtLSU of intact mitoribosomes; site also formed by 23S rRNA (H84-ES3, A2755, U2759)
T2 sequence (Q1K6P0 whole entry): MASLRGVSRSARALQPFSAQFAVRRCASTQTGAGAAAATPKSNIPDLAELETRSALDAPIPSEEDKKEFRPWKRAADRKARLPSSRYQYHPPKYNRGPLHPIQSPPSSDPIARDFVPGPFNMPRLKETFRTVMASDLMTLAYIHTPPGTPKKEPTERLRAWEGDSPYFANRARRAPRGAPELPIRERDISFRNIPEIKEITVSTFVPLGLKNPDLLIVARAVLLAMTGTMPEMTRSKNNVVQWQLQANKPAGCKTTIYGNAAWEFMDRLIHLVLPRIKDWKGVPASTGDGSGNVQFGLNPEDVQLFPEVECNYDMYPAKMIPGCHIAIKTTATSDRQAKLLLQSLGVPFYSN
T2 sequence (V5IQE0 whole entry): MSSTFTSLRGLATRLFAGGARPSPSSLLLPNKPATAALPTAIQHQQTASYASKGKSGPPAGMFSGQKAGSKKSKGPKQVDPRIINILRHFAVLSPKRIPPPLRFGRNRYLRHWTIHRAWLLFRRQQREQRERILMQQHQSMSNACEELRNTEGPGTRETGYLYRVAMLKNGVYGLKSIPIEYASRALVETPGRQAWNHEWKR
Kind of experiment: cryo-EM structure. The experiment is classed as binding. The note with it: co-purified endogenous ligand; assignment 'most likely'; Arg295 of mL40 stacks on nicotinamide; rRNA part of site; oxidation state not stated.

In the case of `Nc1ncnc2c1ncn2[C@@H]1O[C@H](COP(=O)(O)OP(=O)(O)OP(=O)(O)O)[C@@H](O)[C@H]1O` [ATP], the cryo-EM structure entry in experiment [1] is reported as “the correct assignment for the nucleotide is adenosine triphosphate (ATP)”. Regarding `NC(=O)c1ccc[n+]([C@@H]2O[C@H](COP(=O)([O-])OP(=O)(O)OC[C@H]3O[C@@H](n4cnc5c(N)ncnc54)[C@H](O)[C@@H]3O)[C@@H](O)[C@H]2O)c1` [NAD], the cryo-EM structure entry in experiment [2] is reported as “we conclude that it is most likely to be NAD”.

These data come from paper PMC7560712, “Analysis of translating mitoribosome reveals functional characteristics of translation in mitochondria of fungi” (Nature Communications, 2020).
